These molecules were tested on Endogenous Huntingtin Protein (assay: Endogenous Huntingtin Protein Assay (MSD plates, MW1 or MAB2166 capture antibody)). Conditions: Table 1.
Assay type: cell-based
Procedure: Endogenous Huntingtin Protein Assay
Meso Scale Discovery (MSD) 96-well or 384-well plates were coated overnight at 4° C. with MW1 (expanded polyglutamine) or MAB2166 monoclonal antibody (for capture) at a concentration of 1 μg/mL in PBS (30 μL per well). Plates were then washed three times with 300 μL wash buffer (0.05% Tween-20 in PBS) and blocked (100 μL blocking buffer; 5% BSA in PBS) for 4-5 hours at room temperature with rotational shaking and then washed three times with wash buffer.
Samples (25 μL) were transferred to the antibody-coated MSD plate and incubated overnight at 4° C. After removal of the lysates, the plate was washed three times with wash buffer, and 25 μL of #5656S (Cell signaling; rabbit monoclonal) secondary antibody (diluted to 0.25 μg/mL in 0.05% Tween-20 in blocking buffer) was added to each well and incubated with shaking for 1 Hour at room temperature. Following incubation with the secondary antibody, the wells were rinsed with wash buffer after which 25 μL of goat anti-rabbit SULFO TAG secondary detection antibody (required aspect of the MSD system) (diluted to 0.25 μg/mL in 0.05% Tween-20 in blocking buffer) was added to each well and incubated with shaking for 1 hour at room temperature. After rinsing three times with wash buffer, 150 μL of read buffer T with surfactant (MSD) were added to each empty well, and the plate was imaged on a SI 6000 imager (MSD) according to manufacturers' instructions provided for 96- or 384-well plates.

SMILES	IC50 [nM]
CN(c1nc2sc(-c3ncc(Br)cn3)nc2s1)[C@@H]1C[C@H]2CC[C@@H](C1)N2 [Compound 186, N-[(1R,3s,5S)-8-azabicyclo[3.2.1]octan-3-yl]-5-(5-bromopyrimidin-2-yl)-N-methyl[1,3]thiazolo[5,4-d][1,3]thiazol-2-amine]	≤ 100
CN(c1nc2sc(-c3ncc(-c4ccc5nncn5c4)cc3O)nc2s1)C1CCNCC1 [Compound 210, 2-{5-[methyl(piperidin-4-yl)amino][1,3]thiazolo[5,4-d][1,3]thiazol-2-yl}-5-([1,2,4]triazolo[4,3-a]pyridin-6-yl)pyridin-3-ol]	3000 to 9000
CN(c1nc2sc(-c3ncc(-c4cn[nH]c4)cc3O)nc2s1)C1CCN(C2CC2)CC1 [Compound 204, 2-{5-[(1-cyclopropylpiperidin-4-yl)(methyl)amino][1,3]thiazolo[5,4-d][1,3]thiazol-2-yl}-5-(1H-pyrazol-4-yl)pyridin-3-ol]	100 to 500
C[C@H]1C[C@H](N(C)c2nc3sc(-c4ncc(-c5cn[nH]c5)c5cc[nH]c45)nc3s2)CCN1 [Compound 75, N-methyl-N-[(2S,4R)-2-methylpiperidin-4-yl]-5-[4-(1H-pyrazol-4-yl)-1H-pyrrolo[2,3-c]pyridin-7-yl][1,3]thiazolo[5,4-d][1,3]thiazol-2-amine]	≤ 100
CCn1cc(-c2cnc(-c3nc4sc(N(C)[C@H]5CCN[C@H](C)C5)nc4s3)c3[nH]ccc23)cn1 [Compound 90, 5-[4-(1-ethyl-1H-pyrazol-4-yl)-1H-pyrrolo[2,3-c]pyridin-7-yl]-N-methyl-N-[(2R,4S)-2-methylpiperidin-4-yl][1,3]thiazolo[5,4-d][1,3]thiazol-2-amine]	≤ 100
CN(c1nc2sc(-c3cnc(-n4cncn4)cn3)nc2s1)[C@H]1C[C@]2(C)CC[C@](C)(C1)N2 [Compound 70, N-[(1R,3s,5S)-1,5-dimethyl-8-azabicyclo[3.2.1]octan-3-yl]-N-methyl-5-[5-(1H-1,2,4-triazol-1-yl)pyrazin-2-yl][1,3]thiazolo[5,4-d][1,3]thiazol-2-amine]	≤ 100
Cc1cc(-c2cn3cc(C4CCNCC4)nc3s2)cc2cn(C)nc12 [Compound 2, 2,7-dimethyl-5-[6-(piperidin-4-yl)imidazo[2,1-b][1,3]thiazol-2-yl]-2H-indazole]	≤ 100
CN(c1nc2sc(-c3ccc(-c4cn[nH]c4)nn3)nc2s1)[C@@H]1C[C@H]2CC[C@@H](C1)N2 [Compound 168, N-[(1R,3s,5S)-8-azabicyclo[3.2.1]octan-3-yl]-N-methyl-5-[6-(1H-pyrazol-4-yl)pyridazin-3-yl][1,3]thiazolo[5,4-d][1,3]thiazol-2-amine]	≤ 100
CN(c1nc2sc(-c3ccc(-c4cn[nH]c4)cc3O)nc2s1)[C@H]1CCN[C@@H](CO)C1 [Compound 202, 2-(5-{[(2R,4S)-2-(hydroxymethyl)piperidin-4-yl](methyl)amino}[1,3]thiazolo[5,4-d][1,3]thiazol-2-yl)-5-(1H-pyrazol-4-yl)phenol]	≤ 100
CN(c1nc2sc(-c3cnc(-c4cn[nH]c4)c4[nH]ccc34)nc2s1)C1CCNCC1 [Compound 226, N-methyl-N-(piperidin-4-yl)-5-[7-(1H-pyrazol-4-yl)-1H-pyrrolo[2,3-c]pyridin-4-yl][1,3]thiazolo[5,4-d][1,3]thiazol-2-amine]	≤ 100
CN(c1nc2sc(-c3ncc(-c4cn[nH]c4)c4cc[nH]c34)nc2s1)C1CC(C)(C)NC(C)(C)C1 [Compound 159, N-methyl-5-[4-(1H-pyrazol-4-yl)-1H-pyrrolo[2,3-c]pyridin-7-yl]-N-(2,2,6,6-tetramethylpiperidin-4-yl)[1,3]thiazolo[5,4-d][1,3]thiazol-2-amine]	≤ 100
CN(c1nc2sc(-n3ccc(Br)cc3=O)nc2s1)[C@@H]1C[C@H]2CC[C@@H](C1)N2 [Compound 171, 1-(5-{[(1R,3s,5S)-8-azabicyclo[3.2.1]octan-3-yl](methyl)amino}[1,3]thiazolo[5,4-d][1,3]thiazol-2-yl)-4-bromopyridin-2(1H)-one]	≤ 100

From patent publication US11685746B2, “Heteroaryl compounds for treating Huntington's disease” (PTC THERAPEUTICS, INC., priority 2018, dated 2023)
